Assay results as given in patent publication US20250171459A1, “2-METHYL-4',5'-DIHYDROSPIRO[PIPERIDINE-4,7'-THIENO[2,3-C]PYRAN] DERIVATIVES AS INHIBITORS OF APOL1 AND METHODS OF USING SAME” (Vertex Pharmaceuticals Incorporated, priority 2022, published 2025).

Target: T1, APOL1 (Homo sapiens, UniProt O14791)
T1 sequence (O14791 1-398 S342G/I384M): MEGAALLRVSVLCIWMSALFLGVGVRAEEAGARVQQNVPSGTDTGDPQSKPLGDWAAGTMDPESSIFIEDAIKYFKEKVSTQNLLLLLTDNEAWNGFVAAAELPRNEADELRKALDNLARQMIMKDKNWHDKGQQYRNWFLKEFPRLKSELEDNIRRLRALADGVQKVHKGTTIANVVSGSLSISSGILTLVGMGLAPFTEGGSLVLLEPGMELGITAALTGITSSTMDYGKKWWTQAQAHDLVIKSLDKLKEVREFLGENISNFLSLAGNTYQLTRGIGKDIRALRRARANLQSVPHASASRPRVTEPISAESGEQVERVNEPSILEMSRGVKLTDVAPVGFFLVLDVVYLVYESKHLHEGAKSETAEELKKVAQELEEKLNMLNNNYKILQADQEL
Experiment: MultiTox-Fluor Multiplex Cytotoxicity Assay in tet-inducible APOL1 T-REx-HEK293 cells (cell rescue, ratio of dead to live cells)
Assay type: cell-based
Conditions: tet-inducible transgenic APOL1 T-REx-HEK293 cell lines, 50 ng/mL tet, 24 hours; read-out: IP50 (i.e., IC50 for cell proliferation)
How it was run: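 T-REx-HEK293 cells with tet-inducible APOL1 were treated with compound (10 μM top, 10-point 3-fold dilution, duplicate) plus 50 ng/mL tetracycline for 24 h at 37° C, in DMEM with 2% tet-free FBS. MultiTox-Fluor protease signals gave a dead/live ratio, normalized to no tet (100% viability) and tet alone (0%).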

SMILES | IC50
CCC1=CC2=C(CCO[C@@]23CCN(Cc2cn(CCS(C)(=O)=O)nn2)[C@@H](C)C3)S1(=O)=O [Compound 497, (2′S,4R)-2-ethyl-2′-methyl-1′-[[1-(2-methylsulfonylethyl)triazol-4-yl]methyl]spiro[6,7-dihydrothieno[3,2-c]pyran-4,4′-piperidine]1,1-dioxide] | 100 to 500 nM
C[C@H]1C[C@@]2(CCN1Cc1cnn(C[C@H](O)CC#N)c1)OCCc1c2sc(C(F)(F)F)c1CO [Compound 918] | < 100 nM
C[C@H]1C[C@@]2(CCN1Cc1cnn(CCS(C)(=O)=O)c1)OCC(O)c1cc(Cl)sc12 (single isomer, unassigned) [Compound 768] | < 100 nM
C[C@H]1C[C@@]2(CCN1Cc1cn[nH]c1)OC[C@](O)(C(F)F)c1cc(Cl)sc12 [Compound 828, (2′S,4S,7R)-2-chloro-4-(difluoromethyl)-2′-methyl-1′-(1H-pyrazol-4-ylmethyl)spiro[5H-thieno[2,3-c]pyran-7,4′-piperidine]-4-ol] | < 100 nM
CCc1cc2c(s1)CCO[C@@]21CCN(CC2CC(NC(=O)CCCCCOCCOCCOCCOCCCCCCCl)C2)[C@@H](C)C1 (stereo partly drawn) [Compound 385, 6-[2-[2-[2-(6-chlorohexoxy)ethoxy]ethoxy]ethoxy]-N-[3-[[(2′S,4R)-2-ethyl-2′-methyl-spiro[6,7-dihydrothieno[3,2-c]pyran-4,4′-piperidine]-1′-yl]methyl]cyclobutyl]hexanamide] | 100 to 500 nM
C[C@H]1C[C@@]2(CCN1CC(=O)N(C)C)OCCc1cc(CC(F)F)sc12 [Compound 624] | 500 to 1000 nM
C[C@H]1C[C@@]2(CCN1C[C@H]1C[C@@H](NC(=O)C3CCC3)C1)OCCc1cc(CC(F)F)sc12 [Compound 557] | < 100 nM
CCc1cc2c(s1)CCO[C@@]21CCN(Cc2cn(CC3(CCO)CC3)nn2)[C@@H](C)C1 [Compound 83] | 100 to 500 nM
C[C@H]1C[C@@]2(CCN1Cc1cnccn1)OCCc1cc(Cl)sc12 [Compound 666] | 100 to 500 nM
CCc1cc2c(s1)CCOC21CCN(Cc2ccc(C(=O)NC3CCCC3=O)nc2)CC1 (stereo not drawn) [Compound 1058] | 100 to 500 nM
CCc1ccc(S(=O)(=O)N[C@H]2C[C@@H](CN3CC[C@]4(C[C@@H]3C)OCCc3sc(CC)cc34)C2)s1 [Compound 403] | < 100 nM
C[C@H]1C[C@@]2(CCN1Cc1ccc(C#N)nc1)OCCc1cc(Cl)sc12 [Compound 667] | 100 to 500 nM
C[C@H]1C[C@@]2(CCN1Cc1cn(C)nn1)OCCc1c2sc(Cl)c1CO [Compound 719] | 100 to 500 nM
CCc1cc2c(s1)CCO[C@@]21CCN(CC2CN(C(=O)c3nonc3C)C2)[C@@H](C)C1 [Compound 426] | < 100 nM
CCc1cc2c(s1)CCO[C@@]21CCN(C[C@H]2C[C@@H](NC(=O)c3cc(C)[nH]n3)C2)[C@@H](C)C1 [Compound 326] | < 100 nM
CCc1cc2c(s1)CCO[C@@]21CCN(C[C@H]2C[C@@H](NS(=O)(=O)CCC3NC(=O)NC3=O)C2)[C@@H](C)C1 (stereo partly drawn) [Compound 415] | 100 to 500 nM
CCc1cc2c(s1)CCO[C@@]21CCN(C[C@H]2C[C@@H](NC(=O)Cc3cc(C)cc(F)c3)C2)[C@@H](C)C1 [Compound 313] | < 100 nM
C[C@H]1C[C@@]2(CCN1CC(O)c1ccccc1)OCCc1cc(CC(F)F)sc12 (stereo partly drawn) [Compound 594, 2-[(2′S, 7R)-2-(2,2-difluoroethyl)-2′-methyl-spiro[4,5-dihydrothieno[2,3-c]pyran-7,4′-piperidine]-1′-yl]-1-phenyl-ethanol] | < 100 nM
C[C@H]1C[C@@]2(CCN1C[C@H]1C[C@@H](NS(=O)(=O)C3CC3)C1)OCCc1cc(CC(F)F)sc12 [Compound 552] | < 100 nM
C[C@H]1C[C@@]2(CCN1Cc1cnn(C[C@H](O)CO)c1)OCCc1c2sc(C(F)(F)F)c1CO [Compound 899] | 100 to 500 nM
CCc1cc2c(s1)CCO[C@@]21CCN(Cc2cn(C(C)(C)C(N)=O)nn2)[C@@H](C)C1 [Compound 149] | 500 to 1000 nM
CCc1cc2c(s1)CCO[C@@]21CCN(Cc2cn(CC(=O)NC3CC3)nn2)[C@@H](C)C1 [Compound 59] | < 100 nM
CCc1cc2c(s1)CCO[C@@]21CCN(C[C@H]2C[C@@H](NS(=O)(=O)c3ccc(F)cc3)C2)[C@@H](C)C1 [Compound 399] | < 100 nM
CCc1cc2c(s1)CCO[C@@]21CCN(Cc2cn(Cc3cnoc3)nn2)[C@@H](C)C1 [Compound 45] | < 100 nM
CC(C)NC(=O)Cn1cc(CN2CC[C@]3(C[C@@H]2C)OCCc2c3sc(C(F)(F)F)c2CO)cn1 [Compound 909] | < 100 nM
CCc1cc2c(s1)CCO[C@@]21CCN(C[C@H]2C[C@@H](NC(=O)c3cn(C4CCOCC4)nn3)C2)[C@@H](C)C1 [Compound 321] | 100 to 500 nM
CCc1cc2c(s1)CCO[C@@]21CCN(Cc2cn([C@H]3C[C@@](C)(O)C3)nn2)[C@@H](C)C1 [Compound 132] | 100 to 500 nM

SMILES | IC50
CCc1cc2c(s1)CCOC21CCN(Cc2cn(C(C)C(=O)NCCO)nn2)CC1 (stereo not drawn) [Compound 1117] | 500 to 1000 nM
CCc1cc2c(s1)CCOC21CCN(Cc2cn(C3CS(=O)(=O)C3)nn2)CC1 [Compound 1183] | 500 to 1000 nM
CCc1cc2c(s1)CCO[C@@]21CCN(C[C@H]2C[C@@H](NC(=O)OCc3ccccc3Cl)C2)[C@@H](C)C1 [Compound 381] | 100 to 500 nM
Cc1cncc(N2CCC(CN3CC[C@]4(C[C@@H]3C)OCCc3c4sc(Cl)c3CO)CC2)n1 [Compound 731] | 500 to 1000 nM
CCc1cc2c(s1)CCO[C@@]21CCN(Cc2cnc(N[C@@H](C)C(=O)NC)nc2)[C@@H](C)C1 [Compound 225] | < 100 nM
CCc1cc2c(s1)CCO[C@@]21CCN(CC2CN(C(=O)C3CNC(=O)O3)C2)[C@@H](C)C1 (stereo partly drawn) [Compound 478] | 100 to 500 nM
CCc1cc2c(s1)CCOC21CCN(Cc2ccc(C(=O)NC3CC(O)C3)nc2)CC1 (stereo not drawn) [Compound 1055] | < 100 nM
C[C@H]1C[C@@]2(CCN1Cc1cn(CC(C)(CO)CO)nn1)OCCc1c2sc(C(F)(F)F)c1CO [Compound 1003] | < 100 nM
CCc1cc2c(s1)CCO[C@@]21CCN(C2CCCC2O)[C@@H](C)C1 (stereo partly drawn) [Compound 234] | < 100 nM
CCc1cc2c(s1)CCOC21CCN(Cc2ccc(C(=O)N3CC(CO)C3)nc2)CC1 [Compound 1050] | < 100 nM
CCc1cc2c(s1)CCO[C@@]21CCN(C[C@H]2C[C@@H](NC(=O)Oc3ccccc3F)C2)[C@@H](C)C1 [Compound 372] | 500 to 1000 nM
CCc1cc2c(s1)CCO[C@@]21CCN(CC2CN(C(=O)OC(C)(C)C)C2)[C@@H](C)C1 [Compound 420, tert-butyl 3-[[(2′S,4R)-2-ethyl-2′-methyl-spiro[6,7-dihydrothieno[3,2-c]pyran-4,4′-piperidine]-1′-yl]methyl]azetidine-1-carboxylate] | < 100 nM
C[C@H]1C[C@@]2(CCN1Cc1cnn(CCS(C)(=O)=O)c1)OCC(O)(C(F)(F)F)c1cc(Cl)sc12 (stereo partly drawn) [Compound 852, (2′S,7R)-2-chloro-2′-methyl-1′-[[1-(2-methylsulfonylethyl)pyrazol-4-yl]methyl]-4-(trifluoromethyl)spiro[5H-thieno[2,3-c]pyran-7,4′-piperidine]-4-ol] | < 100 nM
CCc1cc2c(s1)CCO[C@@]21CCN(C[C@H]2C[C@@H](NC(=O)C3CC(=O)C3(C)C)C2)[C@@H](C)C1 (stereo partly drawn) [Compound 318] | < 100 nM
CCc1cc2c(s1)CCO[C@@]21CCN(Cc2cn(CC3(O)CCOCC3)nn2)[C@@H](C)C1 [Compound 190] | < 100 nM
CCc1cc2c(s1)CCO[C@@]21CCN(Cc2ncco2)[C@@H](C)C1 [Compound 284] | 500 to 1000 nM
C[C@H]1C[C@@]2(CCN1Cc1ccc(N3CCCC3=O)cc1)OCCc1cc(Cl)sc12 [Compound 647] | < 100 nM
CCc1cc2c(s1)CCO[C@@]21CCN(Cc2cn(CCc3cn(C)cn3)nn2)[C@@H](C)C1 [Compound 36] | 100 to 500 nM
CNC(=O)c1cccc(CN2CC[C@]3(C[C@@H]2C)OC[C@H](O)c2cc(Cl)sc23)c1 [Compound 812] | 100 to 500 nM
C[C@H]1C[C@@]2(CCN1Cc1cncnc1)OCCc1cc(CC(F)F)sc12 [Compound 567] | < 100 nM
C[C@H]1C[C@@]2(CCN1Cc1ccc(OCC(=O)N3CCOCC3)cc1)OC[C@H](O)c1cc(Cl)sc12 [Compound 798] | < 100 nM
CCc1cc2c(s1)CCO[C@@]21CCN(CCOC)[C@@H](C)C1 [Compound 278, (2′S,4R)-2-ethyl-1′-(2-methoxyethyl)-2′-methyl-spiro[6,7-dihydrothieno[3,2-c]pyran-4,4′-piperidine]] | 100 to 500 nM
CCc1cc2c(s1)CCO[C@@]21CCN(Cc2cn([C@@H]3CCN(C(=O)OC(C)(C)C)C3)nn2)[C@@H](C)C1 [Compound 15, tert-butyl (3R)-3-[4-[[(2′S,4R)-2-ethyl-2′-methyl-spiro[6,7-dihydrothieno[3,2-c]pyran-4,4′-piperidine]-1′-yl]methyl]triazol-1-yl]pyrrolidine-1-carboxylate] | 100 to 500 nM
CCc1cc2c(s1)CCO[C@@]21CCN(Cc2cn(CC(C)(C)CO)nn2)[C@@H](C)C1 [Compound 135] | 100 to 500 nM
CCc1cc2c(s1)CCO[C@@]21CCN(CC(O)c2ccc(F)c(F)c2)[C@@H](C)C1 (stereo partly drawn) [Compound 253] | 100 to 500 nM
CCc1cc2c(s1)CCO[C@@]21CCN(CC2CN(S(=O)(=O)c3ccccc3)C2)[C@@H](C)C1 [Compound 493] | 500 to 1000 nM
CCc1cc2c(s1)CCO[C@@]21CCN(Cc2cn(C3CCN(S(C)(=O)=O)C3)nn2)[C@@H](C)C1 (stereo partly drawn) [Compound 30] | 100 to 500 nM
